In ChEMBL document CHEMBL4270557, “Discovery of potent anti-convulsant carbonic anhydrase inhibitors: Design, synthesis, in vitro and in vivo appraisal” (Eur J Med Chem, 2018):

What was measured:
Carbonic anhydrase 7 = Carbonic anhydrase 7 (Homo sapiens, UniProt P43166); assay: Inhibition of human recombinant carbonic anhydrase 7 assessed as CO2 hydration preincubated for 15 mins prior to testing measured for 10 to 100 secs by phenol red dye-based stopped-flow assay
Carbonic anhydrase 9 = Carbonic anhydrase 9 (Homo sapiens, UniProt Q16790); assay: Inhibition of human recombinant carbonic anhydrase 9 assessed as CO2 hydration preincubated for 15 mins prior to testing measured for 10 to 100 secs by phenol red dye-based stopped-flow assay
Rattus norvegicus [1] = assay: Anticonvulsant activity in Wistar rat assessed as protection against maximal electroshock-induced seizures at 30 mg/kg, po administered 0.5 hrs prior to 150 mA current induction relative to control; type: functional
Mus musculus [2] = assay: Anticonvulsant activity in Swiss albino mouse assessed as protection against maximal electroshock-induced seizures at 100 mg/kg, ip administered 0.5 hrs prior to 50 mA current induction relative to control; type: functional
Mus musculus [3] = assay: Anticonvulsant activity in Swiss albino mouse assessed as protection against maximal electroshock-induced seizures at 100 mg/kg, ip administered 3 hrs prior to 50 mA current induction relative to control; type: functional
Mus musculus [4] = assay: Anticonvulsant activity in Swiss albino mouse assessed as protection against subcutaneous PTZ-induced seizures at 30 mg/kg, ip administered 0.5 hrs prior to PTZ-induction relative to control; type: functional
Mus musculus [5] = assay: Anticonvulsant activity in Swiss albino mouse assessed as protection against subcutaneous PTZ-induced seizures at 30 mg/kg, ip administered 3 hrs prior to PTZ-induction relative to control; type: functional
Mus musculus [6] = assay: Anticonvulsant activity in Swiss albino mouse assessed as protection against subcutaneous PTZ-induced seizures at 100 mg/kg, ip administered 0.5 hrs prior to PTZ-induction relative to control; type: functional
Mus musculus [7] = assay: Anticonvulsant activity in Swiss albino mouse assessed as protection against subcutaneous PTZ-induced seizures at 100 mg/kg, ip administered 3 hrs prior to PTZ-induction relative to control; type: functional
Rattus norvegicus [8] = assay: Anticonvulsant activity in Wistar rat assessed as protection against maximal electroshock-induced seizures at 30 mg/kg, po administered 2 hrs prior to 150 mA current induction relative to control; type: functional
Mus musculus [9] = assay: Anticonvulsant activity in Swiss albino mouse assessed as protection against maximal electroshock-induced seizures at 30 mg/kg, ip administered 1 hr prior to 50 mA current induction relative to control; type: functional
Mus musculus [10] = assay: Anticonvulsant activity in Swiss albino mouse assessed as protection against maximal electroshock-induced seizures at 30 mg/kg, ip administered 2 hrs prior to 50 mA current induction relative to control; type: functional
Mus musculus [11] = assay: Anticonvulsant activity in Swiss albino mouse assessed as protection against maximal electroshock-induced seizures at 30 mg/kg, ip administered 4 hrs prior to 50 mA current induction relative to control; type: functional
Rattus norvegicus [12] = assay: Sub-acute toxicity in Wistar rat assessed as lymphocytes level at 100 mg/kg, po administered daily for 14 days (reference value: 72.3 +/- 6.7%); type: organism-based; settings: in vivo, 336 h
Rattus norvegicus [13] = assay: Sub-acute toxicity in Wistar rat assessed as eosinophils level at 100 mg/kg, po administered daily for 14 days (reference value: 2 +/- 1.4%); type: organism-based; settings: in vivo, 336 h
Rattus norvegicus [14] = assay: Sub-acute toxicity in Wistar rat assessed as monocytes level at 100 mg/kg, po administered daily for 14 days (reference value: 2.6 +/- 1.5%); type: organism-based; settings: in vivo, 336 h
Rattus norvegicus [15] = assay: Sub-acute toxicity in Wistar rat assessed as basophils level at 100 mg/kg, po administered daily for 14 days (reference value: 0.16 +/- 0.4%); type: organism-based; settings: in vivo, 336 h
Rattus norvegicus [16] = assay: Sub-acute toxicity in Wistar rat assessed as platelet level at 100 mg/kg, po administered daily for 14 days (reference value: 760.8 +/- 179.9 10^3/mm3); type: organism-based; settings: in vivo, 336 h
Rattus norvegicus [17] = assay: Sub-acute toxicity in Wistar rat assessed as SGOT level at 100 mg/kg, po administered daily for 14 days (reference value: 69.9 +/- 7.7 U/L); type: organism-based; settings: in vivo, 336 h
Rattus norvegicus [18] = assay: Sub-acute toxicity in Wistar rat assessed as SGPT level at 100 mg/kg, po administered daily for 14 days (reference value: 58.8 +/- 18.8 U/L); type: organism-based; settings: in vivo, 336 h
Rattus norvegicus [19] = assay: Sub-acute toxicity in Wistar rat assessed as alkaline phosphatase level at 100 mg/kg, po administered daily for 14 days (reference value: 113.2 +/- 15.1 U/L); type: organism-based; settings: in vivo, 336 h
Rattus norvegicus [20] = assay: Sub-acute toxicity in Wistar rat assessed as total bilirubin level at 100 mg/kg, po administered daily for 14 days (reference value: 0.37 +/- 0.11 mg/dl); type: organism-based; settings: in vivo, 336 h
Rattus norvegicus [21] = assay: Sub-acute toxicity in Wistar rat assessed as total protein level at 100 mg/kg, po administered daily for 14 days (reference value: […]); type: organism-based; settings: in vivo, 336 h
Rattus norvegicus [22] = assay: Sub-acute toxicity in Wistar rat assessed as blood urea level at 100 mg/kg, po administered daily for 14 days (reference value: 40.7 +/- 3.3 mg/dl); type: organism-based; settings: in vivo, 336 h
Rattus norvegicus [23] = assay: Sub-acute toxicity in Wistar rat assessed as calcium level at 100 mg/kg, po administered daily for 14 days (reference value: 10.5 +/- 1.5 mg/dl); type: organism-based; settings: in vivo, 336 h
Rattus norvegicus [24] = assay: Sub-acute toxicity in Wistar rat assessed as Na+ level at 100 mg/kg, po administered daily for 14 days (reference value: 143.8 +/- 2.3 mEq/L); type: organism-based; settings: in vivo, 336 h
Rattus norvegicus [25] = assay: Sub-acute toxicity in Wistar rat assessed as K+ level at 100 mg/kg, po administered daily for 14 days (reference value: 4.79 +/- 0.45 mEq/L); type: organism-based; settings: in vivo, 336 h
Rattus norvegicus [26] = assay: Sub-acute toxicity in Wistar rat assessed as Cl- level at 100 mg/kg, po administered daily for 14 days (reference value: 104.1 +/- 6.2 mEq/L); type: organism-based; settings: in vivo, 336 h
Rattus norvegicus [27] = assay: Sub-acute toxicity in Wistar rat assessed as change in behavior at 100 mg/kg, po administered daily for 14 days; type: organism-based; settings: in vivo, 336 h
Rattus norvegicus [28] = assay: Sub-acute toxicity in Wistar rat assessed as mortality at 100 mg/kg, po administered daily for 14 days; type: organism-based; settings: in vivo, 336 h
Rattus norvegicus [29] = assay: Sub-acute toxicity in Wistar rat assessed as effect on water intake at 100 mg/kg, po administered daily for 14 days; type: organism-based; settings: in vivo, 336 h
Homo sapiens [30] = species: Homo sapiens; assay: Selectivity ratio of Ki for human recombinant carbonic anhydrase 1 to Ki for human recombinant carbonic anhydrase 7
Homo sapiens [31] = species: Homo sapiens; assay: Selectivity ratio of Ki for human recombinant carbonic anhydrase 2 to Ki for human recombinant carbonic anhydrase 7
Rattus norvegicus [32] = assay: Sub-acute toxicity in Wistar rat assessed as hemoglobin level at 100 mg/kg, po administered daily for 14 days (reference value: 13.1 +/- 0.9 g/dl); settings: in vivo, 336 h
Mus musculus [33] = assay: Anticonvulsant activity in Swiss albino mouse assessed as protection against maximal electroshock-induced seizures at 100 mg/kg, ip administered 3 hrs prior to 50 mA current induction relative to control
Mus musculus [34] = assay: Anticonvulsant activity in Swiss albino mouse assessed as protection against maximal electroshock-induced seizures at 100 mg/kg, ip administered 0.5 hrs prior to 50 mA current induction relative to control

Carbonic anhydrase 7, sequence (P43166 whole entry): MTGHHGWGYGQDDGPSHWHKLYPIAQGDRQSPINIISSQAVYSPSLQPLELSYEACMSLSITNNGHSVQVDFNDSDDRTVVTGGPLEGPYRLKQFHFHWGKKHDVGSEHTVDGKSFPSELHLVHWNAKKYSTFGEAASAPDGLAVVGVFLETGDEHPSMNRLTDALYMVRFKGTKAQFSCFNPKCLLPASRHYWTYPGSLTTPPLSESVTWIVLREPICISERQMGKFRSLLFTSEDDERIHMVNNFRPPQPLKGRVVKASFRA

Cc1ccc(N2CCN(c3ccc(/C=N/NC(=O)c4ccc(S(N)(=O)=O)cc4)cc3)CC2)c(C)c1
Ki (Carbonic anhydrase 7): 17.8 nM
Ki (Carbonic anhydrase 9): 1660 nM
Activity (Rattus norvegicus [1]): 67 - 84%
Activity (Mus musculus [2]): 50%
Activity (Mus musculus [3]): 50%
Activity (Mus musculus [4]): 50%
Activity (Mus musculus [5]): 67%
Activity (Mus musculus [6]): 50%
Activity (Mus musculus [7]): 83%
Activity (Rattus norvegicus [8]): 67%
Activity (Mus musculus [9]): 60%
Activity (Mus musculus [10]): 60%
Activity (Mus musculus [11]): 50%
Activity (Rattus norvegicus [12]): 71.5%
Activity (Rattus norvegicus [13]): 2.6%
Activity (Rattus norvegicus [14]): 2%
Activity (Rattus norvegicus [15]): 0.33%
Activity (Rattus norvegicus [16]): 622.3 ×10³ /mm3
Activity (Rattus norvegicus [17]): 65 U/L
Activity (Rattus norvegicus [18]): 60.3 U/L
Activity (Rattus norvegicus [19]): 96.5 U/L
Activity (Rattus norvegicus [20]): 0.35 mg/dL
Activity (Rattus norvegicus [21]): 6.62 g/dL
Activity (Rattus norvegicus [22]): 39.6 mg/dL
Activity (Rattus norvegicus [23]): 10 mg/dL
Activity (Rattus norvegicus [24]): 142.5 mEq/L
Activity (Rattus norvegicus [25]): 4.83 mEq/L
Activity (Rattus norvegicus [26]): 105.6 mEq/L
Activity (Rattus norvegicus [27]): Non-Toxic
Activity (Rattus norvegicus [28]): Non-Toxic
Activity (Rattus norvegicus [29]): Non-Toxic
Ratio Ki (Homo sapiens [30]): 561
Ratio Ki (Homo sapiens [31]): 527
Activity (Rattus norvegicus [32]): 12.2 g/dL
Activity (Mus musculus [33]): 50%
Activity (Mus musculus [34]): 50%
